Values of other authors as cited in patent US10610591B2, “Light responsive quantum dot drug delivery system” (Nanoco Technologies Ltd., priority 2017, dated 2020).
Blank lines part the entries; values can stand above or below the compound they belong to.

Key:
[1] = not given; remark: listed apart in the source
[2] = pH 7.4

Compound: 7-Ethyl-10-hydroxycamptothecin
- solubility in DMSO (DMSO): 2000 µg/mL
- solubility in water (water): essentially insoluble in water

- log P (log Po/w, log Poct/wat, log Pexp) ([1]; octanol/water): 2.4
Compound: CC(C)(C#N)c1cc(Cn2cncn2)cc(C(C)(C)C#N)c1 [anastrozole, alpha,alpha,alpha′,alpha′-tetramethyl-5-(1H,1,2,4-triazol-1-ylmethyl)-m-benzenediacetonitrile]

- log P^N (neutral) ([1]; neutral): 3.60
- log D7.4 [2]: 0.12
Compound: CC1=C(CC(=O)O)c2cc(F)ccc2/C1=C\c1ccc([S+](C)[O-])cc1 (centres unmarked) [sulindac]
